Laboratory results taken from patent US6593306B1, “Methods for modulation and inhibition of telomerase” (Board of Regents, The University of Texas Systems, priority 1995, dated 2003).
“And” between values parts separate entries of the source, which are not always exact repeats. Equal values may be shown once.

Experiments:
MDA-231 = experiment: Growth inhibition (MTT), MDA-231; format: cell-based; settings: Homo sapiens, MDA-MB-231, 144 h, 6 days
Experimental: (§1) Exponentially growing cells (1-2×10^3 cells, unless specified otherwise) in 0.1 ml medium were seeded on day 0 in a 96-well microtiter plate. On day 1, 0.1 ml aliquots of medium containing graded concentrations of test analogs were added in duplicate to the cell plates. After incubation at 37° C. in a humidified incubator for 6 days, the plates were centrifuged briefly and 100 μl of the growth medium was removed. Cell cultures were incubated with 50 μl of 3-(4,5-dimethylthiazol-2-yl)-2,5-diphenyl-tetrazolium bromide, (MTT) at a concentration of 1 mg/ml in Dulbecco's phosphate buffered saline (PBS)) for 4 hr at 37° C. The resulting purple formazan precipitate was solubilized with 200 μl of 0.04 N HCl in isopropyl alcohol. Absorbance was monitored in a BioRad Model 3550 Microplate Reader at a test wavelength of 570 nm and a reference wavelength of 630 nm. The absorbance was transferred to a PC 486 computer. The IC50 values were determined by a computer program (EZ-ED50) that fits all the data to the following four-parameter logistic equation: [formula]
(§2) where Amax is the absorbance of control cells, Amin is the absorbance of cells in the presence of highest agent concentration, Y is the observed absorbance, X is the agent concentration, IC50 is the concentration of agent that inhibits the cell growth by 50% of control cells (based on the absorbance) and n is the slope of the curve.
(§3) This is due to the extracellular dephosphorylation of the mono-, di-, or triphosphates by […] or 5′-nucleotidase back to the nucleoside. With this in mind, the inventors used only nucleosides rather than nucleoside triphosphates in these studies. Cultured tumor cells were incubated with selected nucleosides at graded concentrations for 6 days and the growth inhibition was determined by the standard MTT assay.

PC3 = experiment: Growth inhibition (MTT), PC3; format: cell-based; settings: Homo sapiens, PC-3, 144 h, 6 days
Experimental: as §1, §2, §3

Raji = experiment: Growth inhibition (MTT), Raji; format: cell-based; settings: Homo sapiens, 144 h, 6 days
Experimental: as §1, §2, §3

SKBR3 = experiment: Growth inhibition (MTT), SKBR3; format: cell-based; settings: Homo sapiens, SK-BR-3, 144 h, 6 days
Experimental: as §1, §2, §3

BT-20 = experiment: Growth inhibition (MTT), BT-20; format: cell-based; settings: Homo sapiens, BT-20, 144 h, 6 days
Experimental: as §1, §2, §3

MCF-7 = experiment: Growth inhibition (MTT), MCF-7; format: cell-based; settings: Homo sapiens, MCF7, 144 h, 6 days
Experimental: as §1, §2, §3

DU145 = experiment: Growth inhibition (MTT), DU145; format: cell-based; settings: Homo sapiens, DU-145, 144 h, 6 days
Experimental: as §1, §2, §3

[1] = biological target: T1, human 293 cell telomerase (Homo sapiens, UniProt O14746); experiment: Conventional telomerase assay (32P-dGTP as radiolabel substrate); format: biochemical
T1 construct: with 20 μl of S100 enzyme extract; endogenous in cells; host or cells: 293 cells (transformed human embryonic kidney), S100 extract
T1 sequence (O14746 whole entry): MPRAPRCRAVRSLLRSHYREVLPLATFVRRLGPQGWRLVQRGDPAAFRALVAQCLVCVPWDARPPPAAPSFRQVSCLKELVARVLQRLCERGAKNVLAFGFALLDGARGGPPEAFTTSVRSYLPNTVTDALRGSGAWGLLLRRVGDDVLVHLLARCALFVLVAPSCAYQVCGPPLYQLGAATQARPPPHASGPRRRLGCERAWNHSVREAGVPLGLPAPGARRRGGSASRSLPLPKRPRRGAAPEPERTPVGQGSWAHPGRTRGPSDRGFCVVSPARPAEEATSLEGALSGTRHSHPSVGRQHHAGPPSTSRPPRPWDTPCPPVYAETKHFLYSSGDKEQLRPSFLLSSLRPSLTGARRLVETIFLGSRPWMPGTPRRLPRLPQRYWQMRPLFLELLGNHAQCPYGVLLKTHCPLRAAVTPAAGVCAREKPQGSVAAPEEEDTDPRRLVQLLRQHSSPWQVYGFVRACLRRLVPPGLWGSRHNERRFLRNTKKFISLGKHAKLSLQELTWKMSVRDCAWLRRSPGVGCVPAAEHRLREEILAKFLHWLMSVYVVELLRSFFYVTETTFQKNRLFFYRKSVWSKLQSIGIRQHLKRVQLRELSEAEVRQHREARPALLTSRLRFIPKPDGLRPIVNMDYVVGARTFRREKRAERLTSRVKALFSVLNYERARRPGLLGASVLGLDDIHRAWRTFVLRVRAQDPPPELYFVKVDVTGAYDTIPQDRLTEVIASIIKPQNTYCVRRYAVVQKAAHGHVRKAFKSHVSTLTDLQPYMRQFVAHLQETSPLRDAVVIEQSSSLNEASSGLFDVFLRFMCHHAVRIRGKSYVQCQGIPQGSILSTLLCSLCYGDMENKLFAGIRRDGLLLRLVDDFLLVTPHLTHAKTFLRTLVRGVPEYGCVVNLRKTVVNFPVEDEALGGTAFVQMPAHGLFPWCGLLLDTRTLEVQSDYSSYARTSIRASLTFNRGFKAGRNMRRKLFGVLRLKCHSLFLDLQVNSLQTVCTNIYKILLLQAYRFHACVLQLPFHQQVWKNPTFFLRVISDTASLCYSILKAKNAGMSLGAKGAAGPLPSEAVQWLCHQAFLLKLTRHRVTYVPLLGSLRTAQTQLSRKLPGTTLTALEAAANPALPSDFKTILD
T1 sequence (O60832 whole entry partner): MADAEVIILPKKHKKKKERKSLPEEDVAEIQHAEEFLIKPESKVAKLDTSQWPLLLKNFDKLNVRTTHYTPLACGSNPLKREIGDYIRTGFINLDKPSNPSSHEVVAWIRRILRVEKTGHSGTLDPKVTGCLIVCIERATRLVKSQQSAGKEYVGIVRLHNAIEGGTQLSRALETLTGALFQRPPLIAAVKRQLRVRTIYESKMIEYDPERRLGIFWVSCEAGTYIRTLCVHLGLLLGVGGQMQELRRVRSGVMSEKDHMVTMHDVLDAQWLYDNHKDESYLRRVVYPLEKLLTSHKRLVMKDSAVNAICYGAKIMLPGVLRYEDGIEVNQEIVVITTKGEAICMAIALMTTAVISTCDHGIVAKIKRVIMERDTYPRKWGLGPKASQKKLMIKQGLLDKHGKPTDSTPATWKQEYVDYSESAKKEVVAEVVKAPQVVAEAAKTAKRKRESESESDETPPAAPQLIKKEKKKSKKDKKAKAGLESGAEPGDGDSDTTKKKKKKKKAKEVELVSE
T1 sequence (Q9NPE3 whole entry partner): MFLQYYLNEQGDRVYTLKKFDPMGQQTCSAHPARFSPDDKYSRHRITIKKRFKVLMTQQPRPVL
T1 sequence (Q9NX24 whole entry partner): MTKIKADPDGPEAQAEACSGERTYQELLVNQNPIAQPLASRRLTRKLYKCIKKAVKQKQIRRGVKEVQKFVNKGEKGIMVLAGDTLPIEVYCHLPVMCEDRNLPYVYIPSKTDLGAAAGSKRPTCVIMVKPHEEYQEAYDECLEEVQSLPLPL
T1 sequence (Q9NY12 whole entry partner): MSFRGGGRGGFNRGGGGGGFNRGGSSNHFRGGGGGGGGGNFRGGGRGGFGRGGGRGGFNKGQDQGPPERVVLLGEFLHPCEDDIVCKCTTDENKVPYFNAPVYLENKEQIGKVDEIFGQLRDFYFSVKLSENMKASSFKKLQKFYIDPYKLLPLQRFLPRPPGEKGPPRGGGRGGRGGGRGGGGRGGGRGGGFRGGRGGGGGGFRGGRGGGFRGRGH
Experimental: (§4) Telomerase was prepared from transformed human embryonic kidney 293 cell line. Human embryonic kidney 293 cells were grown in Joklik's modified MEM niedium (Sigma, St Louis, Mo.) supplemented with 5% fetal bovine serum at 37° C. in a humidified atmosphere with 5% CO2. The cells were subcultured at 1-2×10^5 cells/ml twice a week. When the cells grew to approximately 1×10^6 cells/ml, the cells (˜2×10^9 cells) were centrifuged and transferred into polypropylene centrifuge (50 ml) tubes and kept on ice. The cells were then centrifuged in a (Beckman GS-6R) centrifuge at 1200 RPM for 10 minutes at 4° C., and resuspended in PBS. The washed cells were resuspended in 15 ml Hypobuffer Mix (10 mM HEPES, pH 8.0, 3 mM KCl, 1 mM MgCl2, 1 mM dithiothreitol, 1 μM leupeptin, 0.1 mM PMSF, 10 μM pepstatin, 0.83 μg/ml chymostatin, 0.83 μg/ml antipain, and 43.2 units/ml RNase Guard) and centrifuged. The cell pellets were resuspended in 0.75×volumes Hypobuffer [Hypobuffer Mix+40 units/ml RNase Guard (Pharmacia, N.J.) to allow the cells to swell. The cell suspensions were homogenized to allow the telomerase to “leak” into the cytosolic fraction. The lysate was then poured into new, autoclaved, 3 ml polyallomer ultracentrifuge tubes and centrifuged at 100,000×g for 1 hour at 4° C. A top lipid layer was carefully removed and discarded, and the supernatant was collected. 1/50 of the volume of 5 M NaCl was added to the clear supernatant fluid to achieve a final concentration of 0.1 M. Sterile glycerol was added until the final glycerol concentration was 20%. The enzyme solution was aliquoted into Eppendorf tubes and quickly frozen in liquid nitrogen and stored at −70° C.
The assay is based on the ability of the telomerase enzyme in the S100 fractions to recognize an 18-base DNA primer with the DNA sequence (TTAGGG)3. DNA polymerization initiates from the 3′-OH group of the oligonucleotide. By reading from its complementary internal RNA template, telomerase adds a repeated set of 5′-TTAGGG-3′ to the original 18-base primer. Non-synchronous “starts” and “terminations” among the different enzyme complexes result in a degenerative set of different length DNA primers occurring in 6-base increments. Incorporation of [α-^32P]dGTP at the guanine positions of the 5′-TTAGGG-3′ sequence allows the newly synthesized DNA fragments to be visualized by autoradiography. The resulting image forms the characteristic “ladder” structure that is used to identify telomerase activity. The images are scanned using a phosphoimager or laser densitometer (Molecular Dynamics, Sunnyvale, Calif.). Comparisons of the total volumes under the corresponding peaks are used to quantitate the total amount of [α-^32P] incorporated in the primer extension reaction.
The telomerase assay was initiated by mixing 20 μl of 2×reaction mix (100 mM Tris-OAc, pH 8.5, 100 mM KOAc, 10 mM β-mercaptoethanol, 2 mM spermidine, 2 mM MgCl2, 2 mM dATP, 2 mM dTTP, 2 μM oligo primer, potential inhibitors of interest at the appropriate concentration, and 50 μCi [α^32-P]dGTP) with 20 μl of S100 enzyme extract. The reaction mixture was then incubated at 30° C. for 1 hour. The reaction was stopped by incubating sequentially with 50 μl of the stop solution (10 mM Tris pH 7.5, 20 mM EDTA, 0.1 mg/ml RNase A) and 50 μl of deproteinase solution (10 mM Tris pH 7.5, 0.5% SDS, 0.3 mg/ml Proteinase K). The mixture was extracted with 50% phenol/50% chloroform (v/v). The DNA was then precipitated by adding 2.5×volumes of cold EtOH and letting it stand overnight at −70° C. The DNAs were separated on an 8% polyacrylamide/7M urea denaturing gel at 1600 V for 1.5 hours. The gel was dried and exposed to Kodak XAR-5 film to gel in −70° C. Typical autoradiographic exposures required 3-14 days.

human telomerase = biological target: T2, human telomerase (Homo sapiens, UniProt O14746); experiment: Cell-free telomerase inhibition, conventional or modified assay not stated; format: biochemical
T2 construct: telomerase in S100 extracts of transformed human fetal kidney tumor 293 cells (a processive telomerase); endogenous in cells; host or cells: human cells, (S100 extract)
T2 sequence (O14746 whole entry): as the sequence (O14746 whole entry) above
T2 sequence (O60832 whole entry partner): as the sequence (O60832 whole entry partner) above
T2 sequence (Q9NPE3 whole entry partner): as the sequence (Q9NPE3 whole entry partner) above
T2 sequence (Q9NX24 whole entry partner): as the sequence (Q9NX24 whole entry partner) above
T2 sequence (Q9NY12 whole entry partner): as the sequence (Q9NY12 whole entry partner) above
Experimental: Selected nucleoside triphosphates were tested in one or both of the “conventional” or “modified” telomerase assays described in Methods using the human processive and the CHO non-processive telomerases. Initially, three chain-terminators were selected: 2′,3′-dideoxythymidine triphosphate (ddTTP), 3′-fluoro-2′,3′-dideoxythymidine triphosphate (F-ddTTP), and 3′-azido-2′-, 3′-dideoxythymidine triphosphate (AZ-ddTTP) as prototype agents to investigate whether they could inhibit telomerase activity. The three compounds are dTTP analogs without a 3′-OH group for subsequent chain elongation. They may either incorporate into the telomere sequence and terminate further chain elongation or compete directly with dTTP for the substrate binding site in the telomerase reaction. In either case, telomerase activity is inhibited.

[2] = biological target: T1, human 293 cell telomerase; experiment: Modified telomerase assay (32P-dATP as radiolabeled substrate); format: biochemical
Experimental: as §4
In the conventional telomerase assay, the concentrations of both non-radiolabeled nucleotides, dATP and dTTP, are 1 mM, and the concentration of the radiolabeled [^32P]dGTP is 1.56 μM. Because of the high concentration of dATP and dTTP, the standard assay may not be suitable for determining the potential telomerase inhibition of any “Adenine or Thymine” analogs. […] All other chemicals and reaction conditions are identical to the conventional assay.

human cancer telomerase = biological target: T3, human cancer telomerase (Homo sapiens, UniProt O14746); experiment: Nucleoside triphosphate as telomerase substrate, dGTP replaced in modified reaction; format: biochemical
T3 construct: endogenous in cells; host or cells: human cancer cells
T3 sequence (O14746 whole entry): as the sequence (O14746 whole entry) above
T3 sequence (O60832 whole entry partner): as the sequence (O60832 whole entry partner) above
T3 sequence (Q9NPE3 whole entry partner): as the sequence (Q9NPE3 whole entry partner) above
T3 sequence (Q9NX24 whole entry partner): as the sequence (Q9NX24 whole entry partner) above
T3 sequence (Q9NY12 whole entry partner): as the sequence (Q9NY12 whole entry partner) above

HeLa cell telomerase = biological target: T4, HeLa cell telomerase (Homo sapiens, UniProt O14746); experiment: HeLa cell telomerase assay; format: biochemical; settings: for IC50: HeLa cell telomerase
T4 construct: endogenous in cells; host or cells: HeLa cells (human cervical tumor)
T4 sequence (O14746 whole entry): as the sequence (O14746 whole entry) above
T4 sequence (O60832 whole entry partner): as the sequence (O60832 whole entry partner) above
T4 sequence (Q9NPE3 whole entry partner): as the sequence (Q9NPE3 whole entry partner) above
T4 sequence (Q9NX24 whole entry partner): as the sequence (Q9NX24 whole entry partner) above
T4 sequence (Q9NY12 whole entry partner): as the sequence (Q9NY12 whole entry partner) above

[3] = test system: human colon carcinoma HT29 cells; experiment: Growth inhibition (MTT), HT29 cells; format: cell-based; settings: HT-29, 144 h, 6 days
Experimental: as §1, §2, §3

[4] = test system: transformed human embryonic kidney 293 cells; experiment: Growth inhibition (MTT), 293 cells; format: cell-based; settings: HEK293, 144 h, 6 days
Experimental: as §1, §2, §3

| Structure (SMILES) | IC50 (MDA-231) [µM] | IC50 (PC3) [µM] | IC50 (Raji) [µM] | IC50 (SKBR3) [µM] | IC50 (BT-20) [µM] | IC50 (MCF-7) [µM] | IC50 (DU145) [µM] | IC50 (HeLa cell telomerase) [µM] | also measured |
| --- | --- | --- | --- | --- | --- | --- | --- | --- | --- |
| CSc1nc(N)nc2c1ccn2C1CC(O)C(CO)O1 (stereo not shown) [Compound 3, 6-Thiomethyl-7-deaza-2′-deoxyguanosine] | 281 | > 100 | 84.1 | 74 | 94.3 | 88.6 | > 100 | – | – |
| Nc1nc2c(c(=S)[nH]1)CC=N2 [6-thio-7-deaza guanine] | > 50 | 120 | 84.1 | 74 | 258 | 84.2 | > 100 | – | – |
| Nc1nc2c(ccn2[C@H]2C[C@H](O)[C@@H](COP(=O)(O)OP(=O)(O)OP(=O)(O)O)O2)c(=O)[nH]1 [NA022, 7-Deaza-2′-Deoxyguanosine-5′-Triphosphate] | – | – | – | – | – | – | – | – | remaining activity at 1 µM ([1]; 1.0 μM, read-out: % of Control): 99%; remaining activity at 2.5 µM ([1]; 2.5 μM, read-out: % of Control): 114%; remaining activity at 5 µM ([1]; 5.0 μM, read-out: % of Control): 67%; remaining activity at 7.5 µM ([1]; 7.5 μM, read-out: % of Control): 81%; remaining activity at 10 µM ([1]; 10 μM, read-out: % of Control): 24%; remaining activity at 25 µM ([1]; 25 μM, read-out: % of Control): 27%; remaining activity at 50 µM ([1]; 50 μM, read-out: % of Control): 18%; remaining activity at 75 µM ([1]; 75 μM, read-out: % of Control): 0%; remaining activity at 100 µM ([1]; 100 μM, read-out: % of Control): 0%; IC50 ([1]; [α-32P]dGTP 1.56 μM, TTP and dATP 1 mM): 11 µM; Inhibition of 293 Telomerase, Conventional Assay *dGTP ([1]; up to 2 mM): concentration-dependent inhibition; IC50 (human telomerase; Summary values, assay variant not stated, read-out: IC50): 6.8 µM; times more potent than AZT-TP (human telomerase; from IC50 values): at least 50 times; IC50 ([2]; [α-32P]dATP 3.12 μM, TTP and dGTP 1 mM): 56 µM and < 100 µM; Inhibition of 293 cell telomerase, modified assay ([2]; competing radioactive nucleotide 3.12 μM [α32P]dATP): concentration-dependent inhibition; Substrate of 293 Telomerase (human cancer telomerase; dGTP analog): Is a substrate Produces short telomere Substrate Inhibition; concentration above which there was no activity (human cancer telomerase; dGTP replaced, 1 mM dTTP, 3.12 μM [α-32P]dATP): > 1.5 mM |
| COc1nc(N)nc2c1ccn2[C@H]1C[C@H](O)[C@@H](CO)O1 [6-methoxy-7-deaza-2′-deoxyguanosine] | – | – | – | – | – | – | – | 4.9 | – |
| CSc1nc(N)nc2c1ccn2[C@H]1C[C@H](O)[C@@H](COP(=O)(O)OP(=O)(O)OP(=O)(O)O)O1 [Compound 9, 6-Thiomethyl-7-deaza-2′-deoxyguanosine Triphosphate] | – | – | – | – | – | – | – | – | inhibition in a HeLa cell telomerase assay (HeLa cell telomerase; up to 62.5 μM): no inhibition |
| COc1nc(N)nc2c1ccn2[C@H]1C[C@H](O)[C@@H](COP(=O)(O)OP(=O)(O)OP(=O)(O)O)O1 [Compound 6, 6-Methoxy-7-deaza-2′-deoxyguanosine Triphosphate] | – | – | – | – | – | – | – | 4.9 | – |
| Nc1nc2c(ccn2[C@H]2C[C@H](O)[C@@H](CO)O2)c(=S)[nH]1 [NA028, 6-Thio-7-Deaza-2′-Deoxyguanosine] | 117 | 209 | 103 | 108 | 84 | 108 | > 100 | – | IC50 [3]: 461 µM; IC50 [4]: 461 µM |
| Cn1c(N)nc2c(ccn2[C@H]2C[C@H](O)[C@@H](COP(=O)(O)OP(=O)(O)OP(=O)(O)O)O2)c1=O [Compound 7, 1-Methyl-7-deaza-2′-deoxyguanosine Triphosphate] | – | – | – | – | – | – | – | 159 | incorporation into telomeric ladders, replacing dGTP (human cancer telomerase; modified assay, 1 mM dTTP, 3.12 μM [α-32P]dATP): incorporation |
| Cn1c(N)nc2c(ccn2[C@H]2C[C@H](O)[C@@H](CO)O2)c1=O [Compound 5, 1-N-methyl-7-deaza-2′-deoxyguanosine] | > 50 | 93.4 | 43.4 | – | 60.3 | 57.5 | > 50 | 159 | – |
